We go through 12 compounds from US20120108501A1, “Protease Inhibitors” (priority 2009, published 2012).

Series [1] can be described thus: Pharmacokinetics of PEGylated protease inhibitor prodrugs in rats. The format is in vivo, male Sprague-Dawley rats. Set-up: AUCall / AUC: concentration or dose not given beside the values. Conditions: prodrug in plasma; for AUCall / Cmax: mean ± SD. The protocol:
Pharmacokinetic analysis of protease inhibitors described herein was conducted. To evaluate the pharmacokinetics of PEGylated protease inhibitor conjugates with releasable lipophilic attachments, test compounds were administered to male Sprague-Dawley rats.
At various times following test article administration, serial blood samples were collected from indwelling jugular vein catheters and transferred to micro-tubes containing 7.5 μL of 20% w/v K2EDTA as an anticoagulant. Following processing of the blood samples to plasma (10 minutes at 10000 rpm, Centrifuge Model: Kubota 3500), plasma concentrations of the test article or corresponding PEGylated molecule released from the test article was measured using LC-MS/MS methods. Pharmacokinetic parameters were estimated using noncompartmental methods.
Table 3 presents a summary of pharmacokinetic parameters of PEGylated protease inhibitor prodrugs, wherein Cmax is the maximum (peak) concentration, AUCall represents the area under the concentration-time curve from zero to time of last concentration value, T½ is half life, and MRTlast is the mean residence time to last observable concentration

Series [2] is described as follows: Pharmacokinetics of released PEGylated protease inhibitor following P.O. administration of prodrugs in rats. Conditions: rats (n = 4-5); for C24 Mean: concentration at 24 hours. The format is in vivo, male Sprague-Dawley rats. Set-up: AUCall Mean: concentration or dose not given beside the values; C24 Mean: unit not given here. The method in brief:
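Prodrugs given orally to male Sprague-Dawley rats, with serial blood via jugular catheter into K2EDTA. Plasma levels of test article or released PEGylated inhibitor measured by LC-MS/MS. PK parameters from noncompartmental analysis.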

The mark [3] stands for this setting: mPEG5-atazanavir in plasma after PO administration of mPEG5-ATV or of the listed prodrug.
Setting [4] is: mPEG3-atazanavir in plasma after PO administration of mPEG3-ATV or of the listed prodrug.

The term Cmax denotes the maximum level reached in the sampled fluid or tissue. In the case of `COCCOCCOCCOCCOCCOC(=O)N[C@H](C(=O)N[C@@H](Cc1ccccc1)[C@H](CN(Cc1ccc(-c2ccccn2)cc1)NC(=O)[C@@H](NC(=O)OC)C(C)(C)C)OC(=O)[C@H](Cc1ccccc1)NC(=O)[C@@H](N)Cc1ccccc1)C(C)(C)C.Cl` [Phe-Phe-mPEG5-Atazanavir HCl, Phe-Phe-mPEG5-atazanavir hydrochloride], in series [1], the MRTlast is 1.49 ± 0.412 h, the “t½(z)” value came out at 2.01 h, the AUCall is 31.8 ± 13.7 ng·h/mL and the Cmax is given as 17.9 ± 9.09 ng/mL. In series [2] (setting [3]), the “AUCall Mean” value is 94.3 ng·h/mL, the “Cmax Mean” value was determined as 12.9 ng/mL, the “MRT last Mean” value amounted to 9.22 h and the “Tmax Median” value is 0.750 h.

For `COCCOCCOCCOC(=O)NC(C(=O)NC(Cc1ccccc1)C(CN(Cc1ccc(-c2ccccn2)cc1)NC(=O)C(NC(=O)OC)C(C)(C)C)OC(=O)COCCOC(=O)C(N)CC(C)C)C(C)(C)C.Cl` (stereo not drawn) [mPEG3-Atazanavir-CME-Leucine HCl, mPEG3-Atazanavir-CME-Leucine], in series [1], the MRTlast was 3.74 ± 6.09 h, the AUCall came out at 13.1 ± 17.2 ng·h/mL and the peak concentration (Cmax) amounted to 11.5 ± 12.8 ng/mL. In series [2] (setting [4]), the “AUCall Mean” value amounted to 85.9 ng·h/mL, the “Cmax Mean” value is reported as 4.39 ng/mL, the “MRT last Mean” value came out at 17.4 h and the “Tmax* Median” value is 9.00 h.

Regarding `COCCOCCOCCOC(=O)NC(C(=O)NC(Cc1ccccc1)C(CN(Cc1ccc(-c2ccccn2)cc1)NC(=O)C(NC(=O)OC)C(C)(C)C)OC(=O)COCCOC(=O)C(N)Cc1ccccc1)C(C)(C)C.Cl` (stereo not drawn) [mPEG3-Atazanavir-CME-phenylalanine HCl, mPEG3-atazanavir-CME-phenylalanine], in series [1], the MRTlast is 2.36 ± 3.57 h, the AUCall is 10.2 ± 8.7 ng·h/mL and the peak concentration (Cmax) worked out at 7.98 ± 6.06 ng/mL. Also, in series [2] (setting [4]), the “AUCall Mean” value was 99.5 ng·h/mL, the “Cmax Mean” value is reported as 4.48 ng/mL, the “MRT last Mean” value came out at 18.5 h and the “Tmax* Median” value stood at 6.00 h.

In the case of `COCCOCCOCCOC(=O)NC(C(=O)NC(Cc1ccccc1)C(CN(Cc1ccc(-c2ccccn2)cc1)NC(=O)C(NC(=O)OC)C(C)(C)C)OC(=O)CCCC(=O)O)C(C)(C)C` (stereo not drawn) [mPEG3-Atazanavir-glutaric acid], in series [1], the MRTlast was 8.23 ± 3.48 h, the “t½(z)” value amounted to 7.69 ± 2.54 h, the “Cmin(24 hr)” value was determined as 2.68 ± 1.51 ng/mL and the AUCall stood at 351 ± 50.2 ng·h/mL. In addition, the maximum concentration (Cmax) in series [1] is 61.3 ± 52.7 ng/mL. Also, in series [2] (setting [4]), the “AUCall Mean” value came out at 53.8 ng·h/mL, the “MRT last Mean” value stood at 19.5 h and the “Tmax* Median” value stood at 24.0 h.

Take `CCOCO[C@@H](CN(Cc1ccc(-c2ccccn2)cc1)NC(=O)[C@@H](NC(=O)OC)C(C)(C)C)[C@H](Cc1ccccc1)NC(=O)[C@@H](NC(=O)OCCOCCOCCOC)C(C)(C)C` [mPEG3-Atazanavir-methyl ethyl ether, mPEG3-Atazanavir Methyl Ethyl Ether]: in series [1], the MRTlast worked out at 2.44 ± 0.920 h, the “t½(z)” value was determined as 9.41 ± 3.35 h, the “Cmin(24 hr)” value is recorded as 0.797 ± 0.260 ng/mL and the AUCall stood at 6590 ± 2150 ng·h/mL. Also, the maximum concentration (Cmax) in series [1] stood at 1600 ± 442 ng/mL. Besides, in series [2] (setting [4]), the “C24 Mean” value was found to be 1.20, the “AUCall Mean” value turned out to be 822 ng·h/mL, the “Cmax Mean” value is 190 ng/mL and the “MRT last Mean” value came out at 3.29 h. The “Tmax* Median” value in series [2] (setting [4]) turned out to be 0.750 h.

In the case of `COCCOCCOCCOC(=O)N[C@H](C(=O)N[C@@H](Cc1ccccc1)[C@H](CN(Cc1ccc(-c2ccccn2)cc1)NC(=O)[C@@H](NC(=O)OC)C(C)(C)C)OCOC)C(C)(C)C` [mPEG3-Atazanavir-methyl methyl ether, mPEG3-Atazanavir Methyl Methyl Ether], in series [1], the MRTlast was found to be 3.00 ± 0.350 h, the “t½(z)” value was 4.03 ± 1.33 h, the “Cmin(24 hr)” value is listed as 6.52 ± 3.57 ng/mL and the AUCall is 7740 ± 935 ng·h/mL. Also, the Cmax in series [1] stood at 1680 ± 150 ng/mL. For the same compound, in series [2] (setting [4]), the “AUCall Mean” value came to 110 ng·h/mL, the “Cmax Mean” value worked out at 23.0 ng/mL, the “MRT last Mean” value was found to be 3.26 h and the “Tmax* Median” value came out at 1.00 h.

Turning to `CCOC(=O)OC(CN(Cc1ccc(-c2ccccn2)cc1)NC(=O)C(NC(=O)OC)C(C)(C)C)C(Cc1ccccc1)NC(=O)C(NC(=O)OCCOCCOCCOC)C(C)(C)C` (stereo not drawn) [mPEG3-atazanavir ethyl carbonate, mPEG3-Atazanavir Ethyl Carbonate], in series [1], the MRTlast amounted to 3.12 ± 0.285 h, the “t½(z)” value was 6.56 ± 5.13 h, the “Cmin(24 hr)” value stood at 2.42 ± 1.20 ng/mL and the AUCall came out at 4960 ± 442 ng·h/mL. The highest concentration (Cmax) in series [1] worked out at 1190 ± 294 ng/mL. For the same compound, in series [2] (setting [4]), the “C24 Mean” value came out at 1.42, the “AUCall Mean” value stood at 199 ng·h/mL, the “Cmax Mean” value was determined as 17.9 ng/mL and the “MRT last Mean” value worked out at 15.5 h. Besides, in series [2] (setting [4]), the “Tmax* Median” value turned out to be 1.00 h.

`COCCOCCOCCOC(=O)NC(C(=O)NC(Cc1ccccc1)C(CN(Cc1ccc(-c2ccccn2)cc1)NC(=O)C(NC(=O)OC)C(C)(C)C)OC(=O)COCCOC(=O)C(Cc1ccccc1)NC(=O)C(N)Cc1ccccc1)C(C)(C)C.Cl` (stereo not drawn) [mPEG3-atazanavir-CME-phe-phenylalanine, mPEG3-Atazanavir-CME-PhePhenylalanine]: in series [1], the MRTlast was determined as 0.696 ± 0.381 h, the AUCall turned out to be 0.919 ± 0.968 ng·h/mL and the Cmax worked out at 0.772 ± 0.253 ng/mL. In series [2] (setting [4]), the “AUCall Mean” value is 120 ng·h/mL, the “Cmax Mean” value was determined as 6.26 ng/mL, the “MRT last Mean” value was 16.2 h and the “Tmax* Median” value came to 1.25 h.

With `CCOC(=O)O[C@@H](CN(Cc1ccc(-c2ccccn2)cc1)NC(=O)[C@@H](NC(=O)OC)C(C)(C)C)[C@H](Cc1ccccc1)NC(=O)[C@@H](NC(=O)OCCOCCOCCOCCOCCOC)C(C)(C)C.Cl` [mPEG5-Atazanavir - Ethyl Carbonate HCl, mPEG5-Atazanavir Ethyl Carbonate], in series [1], the MRTlast came out at 2.6 ± 0.514 h, the “t½(z)” value is 7.46 ± 4.14 h, the “Cmin(24 hr)” value was 2.19 ± 0.700 ng/mL and the AUCall is 2250 ± 389 ng·h/mL. The Cmax in series [1] was determined as 740 ± 253 ng/mL. Besides, in series [2] (setting [3]), the “C24 Mean” value is given as 2.76, the “AUCall Mean” value worked out at 93.2 ng·h/mL, the “Cmax Mean” value came to 16.7 ng/mL and the “MRT last Mean” value was 8.51 h. For the same compound, the “Tmax Median” value in series [2] (setting [3]) was found to be 2.00 h.

Regarding `COCCOCCOCCOCCOCCOC(=O)NC(C(=O)NC(Cc1ccccc1)C(CN(Cc1ccc(-c2ccccn2)cc1)NC(=O)C(NC(=O)OC)C(C)(C)C)OC(=O)COCCOC(=O)C(N)CC(C)C)C(C)(C)C.Cl` (stereo not drawn) [mPEG5-Atazanavir-CME-Leucine HCl, mPEG5-Atazanavir-CME-Leucine], in series [1], the MRTlast amounted to 0.250 ± 0.000 h, the AUCall came out at 0.119 ± 0.0826 ng·h/mL and the Cmax came out at 0.45 ± 0.330 ng/mL. For the same compound, in series [2] (setting [3]), the “AUCall Mean” value was determined as 65.6 ng·h/mL, the “Cmax Mean” value is 2.88 ng/mL, the “MRT last Mean” value stood at 16.5 h and the “Tmax Median” value worked out at 9.00 h.

With `COCCOCCOCCOCCOCCOC(=O)NC(C(=O)NC(Cc1ccccc1)C(CN(Cc1ccc(-c2ccccn2)cc1)NC(=O)C(NC(=O)OC)C(C)(C)C)OC(=O)COCCOC(=O)C(N)Cc1ccccc1)C(C)(C)C.Cl` (stereo not drawn) [mPEG5-Atazanavir-CME-phenylalanine HCl], in series [1], the MRTlast came to 0.25 h, the AUCall turned out to be 0.0554 ± 0.096 ng·h/mL and the Cmax turned out to be 0.222 ± 0.384 ng/mL. In series [2] (setting [3]), the “AUCall Mean” value was 54.1 ng·h/mL, the “Cmax Mean” value was 2.84 ng/mL, the “MRT last Mean” value came to 14.0 h and the “Tmax Median” value turned out to be 12.0 h.

For `COCCOCCOCCOCCOCCOC(=O)NC(C(=O)NC(Cc1ccccc1)C(CN(Cc1ccc(-c2ccccn2)cc1)NC(=O)C(NC(=O)OC)C(C)(C)C)OCOC)C(C)(C)C` (stereo not drawn) [mPEG5-Atazanavir-methyl methyl ether, mPEG5-Atazanavir Methyl Methyl Ether], in series [1], the MRTlast was 3.93 ± 1.41 h, the “t½(z)” value was 4.54 ± 1.68 h, the “Cmin(24 hr)” value is on record as 6.61 ± 8.39 ng/mL and the AUCall was 3530 ± 1960 ng·h/mL. Further, the maximum concentration (Cmax) in series [1] came to 773 ± 481 ng/mL. In addition, in series [2] (setting [3]), the “AUCall Mean” value came out at 137 ng·h/mL, the “Cmax Mean” value came out at 23.3 ng/mL, the “MRT last Mean” value is 4.76 h and the “Tmax Median” value was determined as 2.00 h.
